Source: patent publication US11077090B2, “Compounds and compositions and uses thereof” (Sunovion Pharmaceuticals Inc., priority 2016, dated 2021)

Test system: compound-treated mice
Test: Neuropharmacological assay (SmartCube): behavioral activity signature and minimal effective dose
Type: in vivo
Details: for minimal effective dose: Mus musculus, ip, MED = dose having 50% or more total activity, read-out: Potency: minimal effective dose (MED); for AD: ADHD (probability of activity signature) / AG: analgesic (probability of activity signature) / AX: anxiolytic (probability of activity signature) / CE: cognitive enhancer (probability of activity signature) / DP: anti-depressant (probability of activity signature) / MS: mood stabilizer (probability of activity signature) / PS: anti-psychotic (probability of activity signature) / SD: sedative hypnotic (probability of activity signature) / UN: uncharacterized CNS activity (probability of activity signature): i.p. 15 min before test, most efficacious dose(s)
Procedure, shortened: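 Video-recorded behavior is compared algorithmically against a reference-compound database, yielding class probabilities (best dose reported). Compounds given i.p. in NMP/PEG/propylene glycol 15 min pre-test at 3 doses; potency as MED, the dose (mpk, range usually 0.3–30) reaching ≥50% total activity.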

SMILES | minimal effective dose [mg/kg] | AD: ADHD (probability of activity signature) | AG: analgesic (probability of activity signature) | AX: anxiolytic (probability of activity signature) | CE: cognitive enhancer (probability of activity signature) | DP: anti-depressant (probability of activity signature) | MS: mood stabilizer (probability of activity signature) | PS: anti-psychotic (probability of activity signature) | SD: sedative hypnotic (probability of activity signature) | UN: uncharacterized CNS activity (probability of activity signature)
Cc1cccc2c1CO[C@@H](C)[C@H]2N.Cl [Example 97] | 3 to 10 | + (LOQ ≤ + <5%) | + (LOQ ≤ + <5%) | ++ (5% ≤ ++ <25%) | ++ (5% ≤ ++ <25%) | + (LOQ ≤ + <5%) | + (LOQ ≤ + <5%) | ++ (5% ≤ ++ <25%) | ++ (5% ≤ ++ <25%) | ++++ (50% ≤ ++++)
Cc1cccc2c1CO[C@H](C)[C@H]2N.Cl [Example 98] | 3 to 10 | + (LOQ ≤ + <5%) | ++ (5% ≤ ++ <25%) | ++ (5% ≤ ++ <25%) | ++ (5% ≤ ++ <25%) | ++ (5% ≤ ++ <25%) | + (LOQ ≤ + <5%) | ++ (5% ≤ ++ <25%) | ++ (5% ≤ ++ <25%) | ++++ (50% ≤ ++++)
CC1(C)OCc2ccccc2C1N.Cl (stereo not drawn) [Example 101, 3,3-Dimethylisochroman-4-amine hydrochloride] | 10 to 30 | + (LOQ ≤ + <5%) | ++ (5% ≤ ++ <25%) | +++ (25% ≤ +++ <50%) | + (LOQ ≤ + <5%) | ++ (5% ≤ ++ <25%) | + (LOQ ≤ + <5%) | ++ (5% ≤ ++ <25%) | ++ (5% ≤ ++ <25%) | + (LOQ ≤ + <5%)
Cc1ccc2c(c1)[C@H](N)CO[C@@H]2C.Cl [Example 106] | 3 to 10 | + (LOQ ≤ + <5%) | + (LOQ ≤ + <5%) | ++ (5% ≤ ++ <25%) | ++ (5% ≤ ++ <25%) | + (LOQ ≤ + <5%) | + (LOQ ≤ + <5%) | ++ (5% ≤ ++ <25%) | ++ (5% ≤ ++ <25%) | ++++ (50% ≤ ++++)
Cc1ccc2c(c1)[C@H](N)CO[C@H]2C.Cl [Example 107] | 3 to 10 | + (LOQ ≤ + <5%) | ++ (5% ≤ ++ <25%) | ++ (5% ≤ ++ <25%) | ++ (5% ≤ ++ <25%) | + (LOQ ≤ + <5%) | + (LOQ ≤ + <5%) | ++ (5% ≤ ++ <25%) | + (LOQ ≤ + <5%) | +++ (25% ≤ +++ <50%)
N[C@@H]1COCc2cccc(Cl)c21 [Example 127] | < 3 | + (LOQ ≤ + <5%) | ++ (5% ≤ ++ <25%) | ++ (5% ≤ ++ <25%) | ++ (5% ≤ ++ <25%) | ++ (5% ≤ ++ <25%) | + (LOQ ≤ + <5%) | ++ (5% ≤ ++ <25%) | + (LOQ ≤ + <5%) | +++ (25% ≤ +++ <50%)
N[C@H]1COCc2cccc(Cl)c21 [Example 128] | < 3 | + (LOQ ≤ + <5%) | ++ (5% ≤ ++ <25%) | ++ (5% ≤ ++ <25%) | +++ (25% ≤ +++ <50%) | ++ (5% ≤ ++ <25%) | + (LOQ ≤ + <5%) | ++ (5% ≤ ++ <25%) | + (LOQ ≤ + <5%) | +++ (25% ≤ +++ <50%)
N[C@@H]1COCc2c(Cl)cccc21 [Example 131] | < 3 | + (LOQ ≤ + <5%) | + (LOQ ≤ + <5%) | ++ (5% ≤ ++ <25%) | +++ (25% ≤ +++ <50%) | ++ (5% ≤ ++ <25%) | ++ (5% ≤ ++ <25%) | ++ (5% ≤ ++ <25%) | ++ (5% ≤ ++ <25%) | +++ (25% ≤ +++ <50%)
N[C@H]1COCc2c(Cl)cccc21 [Example 132] | < 3 | + (LOQ ≤ + <5%) | ++ (5% ≤ ++ <25%) | +++ (25% ≤ +++ <50%) | +++ (25% ≤ +++ <50%) | ++ (5% ≤ ++ <25%) | + (LOQ ≤ + <5%) | ++ (5% ≤ ++ <25%) | ++ (5% ≤ ++ <25%) | +++ (25% ≤ +++ <50%)
